# Test results reported in patent US8236359B2, “Use of phytoecdysones in the preparation of a composition for acting on the metabolic syndrome” (Institut Biophytis SAS, priority 2007, dated 2012).
# Columns and labels:
# male mice C57 BL/6 [1] = assay: Effect of phytoecdysones on mice subjected to a fat (lard, inductor) diet for three weeks; type: in vivo, mice (Mus musculus line C57BI6)
# Method: A test is carried out for studying the effect of phytoecdysones on mice subjected to a fat diet for three weeks
# The fat diet or inductor diet consists in supplying large amounts of fat matter in the form of lard. The mice selected for this study are male mice C57 BL/6, 6-weeks old at the beginning of this inductor diet. Such mice are a preferred study model for analyzing the impact of the quinoa extract enriched with phytoecdysones according to the invention on the physiological parameters of the metabolic syndrome.
# The inductor diet is a diet enriched with lard.
# (§1) The 24 mice of each series have been subjected to a diet, such as detailed in the table 2, for three weeks and have been treated at the same time with the pure molecule, or a quinoa extract enriched up to 1.6% (2.24% the last treatment week for the control series) or 7% of 20-hydroxyecdysone (20E). The concentration of 20-hydroxyecdysone is adjusted to 40 mg per kg of food.
# (§2) While taking account of the amount of food ingested on average by the mice, the administered dose of 20E corresponds in the three treatments to 5 mg of 20E per kg of the body weight and per day. The food is supplied in excess, three times a week, for both diets and the three treatments. On average, 40 g of food are supplied for each cage and per day, i.e. 6.5 g of food for each mouse and per day.
# (§3) The table 2 below indicates in more detail the composition of the food diet to which the mice are subjected.
# (§4) At the time of the sacrifice, the weight of the mice (Bwt), as well as the weight of the liver, the epididymis adipose tissue (EAT) and the subcutaneous adipose tissue (SCAT) are measured.
# (§5) Cells of the epididymis adipose tissue are taken for carrying out a count and a morphological analysis.
# male mice C57 BL/6 [2] = assay: Effect of phytoecdysones on mice subjected to a normal control diet; type: in vivo, mice (Mus musculus line C57BI6)
# Method: At the same time, another test is carried out for studying the effect of these same phytoecdysones on mice which have not been subjected to a fat diet, which is considered as a normal control diet.
# as §1, §2, §3, §4, §5
smiles,measurement,setting,value
"CC(C)(O)CC[C@@H](O)[C@](C)(O)[C@H]1CC[C@@]2(O)C3=CC(=O)[C@@H]4C[C@@H](O)[C@@H](O)C[C@]4(C)[C@H]3CC[C@]12C [pure molecule, 20-hydroxyecdysone]",mode of the distribution of adipocyte diameters,"male mice C57 BL/6 [1]; FIG. 5, lard control about 70",60 µm
same,maximum adipocyte diameter of the distribution,"male mice C57 BL/6 [1]; FIG. 5, lard control up to 110",90 µm
same,effect on adipocyte diameter,"male mice C57 BL/6 [1]; epididymis adipose tissue cells, FIG. 4",reduces the adipocyte sizes in a significant manner
same,obesity / adiposity induced by hyperlipidical and hypercalorific diet (conclusion),male mice C57 BL/6 [1]; gonad and subcutaneous tissue,avoid a development of the an obesity
same,"decrease of the adiposity, gonad (epididymis) adipose tissue (% EAT)","male mice C57 BL/6 [1]; three weeks, 5 mg 20E/kg/day, versus untreated lard-diet mice, FIG. 2",50%
same,effect in non obese animals with a normal diet (conclusion),male mice C57 BL/6 [2],no effect
same,"adiposity, gonad (epididymis) adipose tissue (% EAT)","male mice C57 BL/6 [2]; three weeks, 5 mg 20E/kg/day, versus untreated mice, FIG. 2",does not modify the adiposity
